Among the data in patent US20230033360A1, “COMPOUNDS AS CD73 INHIBITORS” (BioArdis LLC, priority 2019, published 2023) are IC50 values, retold here.

The structures appear in SMILES notation.

The target in this experiment is T1, Recombinant Human 5′-Nucleotidase (CD73) (Homo sapiens, UniProt P21589).
T1 construct: CHO derived CD73 (Trp27-Lys547), with a C-terminal 6-His tag; 6-His (C); purchased R&D 5795-EN; host or cells: CHO
T1 sequence (P21589 27-547): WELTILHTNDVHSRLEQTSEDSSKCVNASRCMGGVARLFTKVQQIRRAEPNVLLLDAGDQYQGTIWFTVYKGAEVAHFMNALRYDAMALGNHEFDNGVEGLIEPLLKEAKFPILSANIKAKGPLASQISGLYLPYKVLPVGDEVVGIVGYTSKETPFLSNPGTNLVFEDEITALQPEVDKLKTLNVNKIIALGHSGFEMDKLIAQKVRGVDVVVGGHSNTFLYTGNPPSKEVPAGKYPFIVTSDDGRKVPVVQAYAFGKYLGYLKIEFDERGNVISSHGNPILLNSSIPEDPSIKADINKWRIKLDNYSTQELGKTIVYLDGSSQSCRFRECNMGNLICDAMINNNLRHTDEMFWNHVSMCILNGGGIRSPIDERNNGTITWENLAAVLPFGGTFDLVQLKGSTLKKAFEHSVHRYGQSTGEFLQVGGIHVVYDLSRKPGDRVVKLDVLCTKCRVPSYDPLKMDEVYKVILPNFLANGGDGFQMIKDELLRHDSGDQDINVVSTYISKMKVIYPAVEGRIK
The experiment can be described thus: CD73 Enzyme Assay (PiColorLock inorganic phosphate detection, AMP substrate). Type of experiment: biochemical. As to conditions: human CD73 0.5 nM, AMP 30 μM, 20 min at 37° C., absorbance 635 nm; read-out: Potency (IC50). The text has this:
Soluble recombinant CD73 catalyzes the conversion of adenosine monophosphate (AMP) to adenosine and inorganic phosphate. The phosphate detection reagent, PiColorLock™ (Innova Bioscience, Cat #303-0125) is based on the change in absorbance of the dye malachite green in the presence of inorganic phosphate (Pi) and this property can be exploited to measure any enzyme that generates Pi. Recombinant Human 5′-Nucleotidase (CD73) (R&D #5795-EN, CHO derived CD73 (Trp27-Lys547), with a C-terminal 6-His tag) was used in the enzymatic assay. This assay, run in a 384-well plate format (Corning® NBS™ 384 well plates, Cat #3640), is a generic method for measuring inorganic phosphate. The basic assay procedure involves two steps: 1) Enzyme reaction: The CD73 enzyme (R&D #5795-EN) is incubated in the presence or absence of compounds. AMP (sigma, cat #01930) is added to start the […] reaction. 2) Detection step: Gold mix is added to the assay system, then stabilizers are added. After incubation the absorbance of the solution is read at OD 635 nm. The recorded OD signal is proportional to the enzyme activity.
Briefly, 25 μl human CD73 (0.5 nM final concentration) in the enzymatic buffer solutions (20 mM Tris, 25 mM NaCl, 1 mM MgCl2, pH 7.5, 0.005% Tween-20) were mixed with various concentrations of the test compound (dissolved in 100% DMSO). These solutions were incubated for 15 min at 25° C., and subsequently 25 μl AMP (30 μM final concentration) was added to start the reaction. The final reaction mixture of enzyme-substrate-compound was incubated for 20 min at 37° C. Meanwhile ‘Gold mix’ was prepared shortly before use by adding 1/100 vol. of accelerator to the PiColorLock™ Gold reagent. 12 μL/well of the ‘Gold mix’ was added to assay plate containing 50 μL enzyme reaction buffer and incubated at 25° C. for 5 min. 5 μL/well stabilizer was added to the assay plate and incubated at 25° C. for 30 min. The absorbance of the well solutions was measured at 635 nm on a Spark 10M instrument (TECAN).
The percent (%) inhibition at each concentration of a compound was calculated relative to the […] value in the Max and Min control wells contained within each assay plate. The Max control wells contained enzyme and substrate as 0% inhibition, and the Min control wells only contained substrate without enzyme as 100% inhibition. The concentrations and percent inhibition values for a test compound are plotted and the concentration of the compound required to achieve 50% inhibition (IC50) was determined with a four-parameter logistic dose response equation.
Consider `O=P(O)(O)CP(=O)(O)OC[C@H]1O[C@@H](c2cnc3c(N4CCC(F)(F)C4)cc(Cl)nn23)[C@H](O)[C@@H]1O` [Example S35, (((((2R,3S,4R,5S)-5-(6-chloro-8-(3,3-difluoropyrrolidin-1-yl)imidazo[1,2-b]pyridazin-3-yl)-3,4-dihydroxytetrahydrofuran-2-yl)methoxy)(hydroxy)phosphoryl)methyl)phosphonic acid], for which the IC50 fell in the range of 1 to 9.9 nM.
Then `C[C@H](Nc1cc(Cl)nn2c([C@@H]3O[C@H](COP(=O)(O)CP(=O)(O)O)[C@@H](O)[C@H]3O)ncc12)c1ccccc1F` [Example S37, (((((2R,3S,4R,5S)-5-(2-chloro-4-(((S)-1-(2-fluorophenyl)ethyl)amino)imidazo[1,5-b]pyridazin-7-yl)-3,4-dihydroxytetrahydrofuran-2-yl)methoxy)(hydroxy)phosphoryl)methyl)phosphonic acid], with 1 to 9.9 nM; and `O=P(O)(O)CP(=O)(O)OC[C@H]1O[C@@H](c2ncc3c(N4CCCC4)cc(Cl)nn23)[C@H](O)[C@@H]1O` [Example S38, [({[(2R,3S,4R,5S)-5-[2-chloro-4-(pyrrolidin-1-yl)imidazo[1,5-b]pyridazin-7-yl]-3,4-dihydroxyoxolan-2-yl]methoxy}(hydroxy)phosphoryl)methyl]phosphonic acid], with 1 to 9.9 nM.
In the case of `O=P(O)(O)CP(=O)(O)OC[C@H]1O[C@@H](c2ncc3c(N4CC5CC5C4)cc(Cl)nn23)[C@H](O)[C@@H]1O` (stereo partly drawn) [Example S39, (((((2R,3S,4R,5S)-5-(4-(3-azabicyclo[3.1.0]hexan-3-yl)-2-chloroimidazo[1,5-b]pyridazin-7-yl)-3,4-dihydroxytetrahydrofuran-2-yl)methoxy)(hydroxy)phosphoryl)methyl)phosphonic acid], the IC50 is 1 to 9.9 nM.
On to `O=P(O)(O)CP(=O)(O)OC[C@H]1O[C@@H](c2ncc3c(N4CCc5ccccc54)cc(Cl)nn23)[C@H](O)[C@@H]1O` [Example S40, [({[(2R,3S,4R,5S)-5-[2-chloro-4-(2,3-dihydroindol-1-yl)imidazo[1,5-b]pyridazin-7-yl]-3,4-dihydroxyoxolan-2-yl]methoxy}(hydroxy)phosphoryl)methyl]phosphonic acid], for which the IC50 lay in the range of 1 to 9.9 nM.
Then `O=P(O)(O)CP(=O)(O)OC[C@H]1O[C@@H](c2csc3c(N4CC5CCCC5C4)nc(Cl)nc23)[C@H](O)[C@@H]1O` (stereo partly drawn) [Example S41, [({[(2R,3S,4R,5S)-5-(2-chloro-4-{hexahydro-1H-cyclopenta[c]pyrrol-2-yl}thieno[3,2-d]pyrimidin-7-yl)-3,4-dihydroxyoxolan-2-yl]methoxy}(hydroxy)phosphoryl)methyl]phosphonic acid], with 10 to 99 nM; and `O=P(O)(O)CP(=O)(O)OC[C@H]1O[C@@H](c2csc3c(N4CCCC4)cc(Cl)nc23)[C@H](O)[C@@H]1O` [Example S42, [({[(2R,3S,4R,5S)-5-[5-chloro-7-(pyrrolidin-1-yl)thieno[3,2-b]pyridin-3-yl]-3,4-dihydroxyoxolan-2-yl]methoxy}(hydroxy)phosphoryl)methyl]phosphonic acid], with 1 to 9.9 nM; and `O=P(O)(O)CP(=O)(O)OC[C@H]1O[C@@H](c2csc3c(N4CC5CCCC5C4)cc(Cl)nc23)[C@@H](F)[C@@H]1O` (stereo partly drawn) [Example S43, (((((2R,3R,4S,5S)-5-(5-chloro-7-(hexahydrocyclopenta[c]pyrrol-2 (1H)-yl)thieno[3,2-b]pyridin-3-yl)-4-fluoro-3-hydroxytetrahydrofuran-2-yl)methoxy)(hydroxy)phosphoryl)methyl)phosphonic acid], with 10 to 99 nM.
Then `O=P(O)(O)CP(=O)(O)OC[C@H]1O[C@@H](c2csc3c(N4CC5CCCC5C4)nc(Cl)nc23)[C@@H](F)[C@@H]1O` (stereo partly drawn) [Example S44, [({[(2R,3R,4S,5S)-5-(2-chloro-4-{hexahydro-1H-cyclopenta[c]pyrrol-2-yl}thieno[3,2-d]pyrimidin-7-yl)-4-fluoro-3-hydroxyoxolan-2-yl]methoxy}(hydroxy)phosphoryl)methyl]phosphonic acid], with 10 to 99 nM.
